Measured values reported in the supplement of paper PMC12463676, “Small-molecule dissolution of stress granules by redox modulation benefits ALS models” (Nature Chemical Biology, 2025).

What was measured:
lipoamide = compound: NC(=O)CCCCC1CCSS1 [lipoamide]; experiment: thermal stability z-score vs DMSO; higher = more thermally stabilized by treatment; conditions: HeLa, lipoamide concentration 100 µM
Protocol: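 Cellular thermal proteome profiling in HeLa cells. Cells were treated with 100 µM lipoamide for 1 h, with or without 1 mM arsenate for a further 1 h, then heated to ten temperatures (37-66.3 °C), and soluble protein was quantified by TMT mass spectrometry relative to 0.1% DMSO controls. The thermal stability score (sum of log2 fold changes minus the abundance score) was transformed to a z-score; mean of n = 3 experiments.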

potassium arsenate = compound: O=[As]([O-])(O)O.[K+] [potassium arsenate]; experiment: as above; conditions: HeLa; arsenate concentration 1 mM
Protocol: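 Cellular thermal proteome profiling in HeLa cells treated with 1 mM arsenate for 1 h (DMSO pretreatment), heated to ten temperatures (37-66.3 °C). Soluble protein was quantified by TMT mass spectrometry relative to DMSO controls; the thermal stability score was transformed to a z-score; mean of n = 3 experiments.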

[1] = arsenate co-treatment: 1 mM arsenate 1 h
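Further: each temperature applied for 3 min, abundance score taken as mean log2 fold change at the two lowest temperatures, z-score obtained by mean subtraction and division by SD.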

Sequence of UniProt Q9P2R7 (Q9P2R7 whole entry): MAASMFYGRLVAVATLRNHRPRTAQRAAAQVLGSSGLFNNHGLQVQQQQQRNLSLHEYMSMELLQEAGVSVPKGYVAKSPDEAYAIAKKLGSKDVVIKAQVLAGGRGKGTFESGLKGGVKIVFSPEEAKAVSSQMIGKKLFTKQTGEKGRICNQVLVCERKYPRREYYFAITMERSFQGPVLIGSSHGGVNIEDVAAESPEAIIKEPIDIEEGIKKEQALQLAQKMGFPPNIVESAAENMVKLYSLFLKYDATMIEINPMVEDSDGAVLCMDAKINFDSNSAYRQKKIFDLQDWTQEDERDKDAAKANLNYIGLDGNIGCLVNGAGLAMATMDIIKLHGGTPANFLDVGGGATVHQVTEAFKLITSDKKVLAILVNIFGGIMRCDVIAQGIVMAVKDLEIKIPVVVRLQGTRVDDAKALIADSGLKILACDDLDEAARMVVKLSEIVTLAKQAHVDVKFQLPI
Sequence of UniProt Q12907 (Q12907 whole entry): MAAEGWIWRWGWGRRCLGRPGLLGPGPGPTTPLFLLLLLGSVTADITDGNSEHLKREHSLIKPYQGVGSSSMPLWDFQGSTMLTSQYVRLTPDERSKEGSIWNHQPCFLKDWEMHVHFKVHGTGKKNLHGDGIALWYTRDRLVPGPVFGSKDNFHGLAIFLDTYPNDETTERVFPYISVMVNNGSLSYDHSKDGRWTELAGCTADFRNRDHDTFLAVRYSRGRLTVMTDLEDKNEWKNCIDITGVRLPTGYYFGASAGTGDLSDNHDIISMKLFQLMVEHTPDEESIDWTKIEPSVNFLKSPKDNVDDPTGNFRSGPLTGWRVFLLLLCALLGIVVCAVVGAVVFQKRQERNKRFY
Sequence of UniProt P38919 (P38919 whole entry): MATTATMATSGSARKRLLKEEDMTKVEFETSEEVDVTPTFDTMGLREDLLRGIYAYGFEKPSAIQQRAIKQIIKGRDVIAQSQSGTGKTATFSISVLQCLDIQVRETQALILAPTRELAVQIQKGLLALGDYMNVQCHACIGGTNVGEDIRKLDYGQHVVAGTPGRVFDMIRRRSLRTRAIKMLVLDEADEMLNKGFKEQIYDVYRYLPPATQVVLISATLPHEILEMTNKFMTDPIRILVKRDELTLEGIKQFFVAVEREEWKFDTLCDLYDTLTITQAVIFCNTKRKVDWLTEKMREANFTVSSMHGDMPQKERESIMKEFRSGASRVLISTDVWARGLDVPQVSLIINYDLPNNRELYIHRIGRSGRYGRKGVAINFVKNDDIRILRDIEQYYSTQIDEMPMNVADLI
Sequence of UniProt Q6ZNA5 (Q6ZNA5 whole entry): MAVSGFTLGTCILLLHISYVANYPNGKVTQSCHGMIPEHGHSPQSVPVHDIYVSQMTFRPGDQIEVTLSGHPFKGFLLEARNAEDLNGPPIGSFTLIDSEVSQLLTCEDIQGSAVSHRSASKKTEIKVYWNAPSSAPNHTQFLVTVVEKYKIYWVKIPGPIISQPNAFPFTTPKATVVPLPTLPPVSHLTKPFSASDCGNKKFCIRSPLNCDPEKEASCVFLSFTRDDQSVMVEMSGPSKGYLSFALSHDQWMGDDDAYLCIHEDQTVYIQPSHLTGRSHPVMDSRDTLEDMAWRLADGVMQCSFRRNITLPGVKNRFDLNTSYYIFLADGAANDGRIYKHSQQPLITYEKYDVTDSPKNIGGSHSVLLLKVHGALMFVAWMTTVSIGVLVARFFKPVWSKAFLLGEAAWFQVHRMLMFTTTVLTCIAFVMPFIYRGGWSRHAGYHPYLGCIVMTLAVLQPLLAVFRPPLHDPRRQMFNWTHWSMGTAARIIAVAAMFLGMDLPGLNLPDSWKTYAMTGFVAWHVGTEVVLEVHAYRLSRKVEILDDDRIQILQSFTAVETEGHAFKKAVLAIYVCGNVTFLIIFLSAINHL
Sequence of UniProt Q9BRT6 (Q9BRT6 whole entry): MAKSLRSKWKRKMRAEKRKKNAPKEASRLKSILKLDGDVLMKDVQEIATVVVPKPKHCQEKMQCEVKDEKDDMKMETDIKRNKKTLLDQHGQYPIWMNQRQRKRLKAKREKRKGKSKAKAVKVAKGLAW
Sequence of UniProt Q14258 (Q14258 whole entry): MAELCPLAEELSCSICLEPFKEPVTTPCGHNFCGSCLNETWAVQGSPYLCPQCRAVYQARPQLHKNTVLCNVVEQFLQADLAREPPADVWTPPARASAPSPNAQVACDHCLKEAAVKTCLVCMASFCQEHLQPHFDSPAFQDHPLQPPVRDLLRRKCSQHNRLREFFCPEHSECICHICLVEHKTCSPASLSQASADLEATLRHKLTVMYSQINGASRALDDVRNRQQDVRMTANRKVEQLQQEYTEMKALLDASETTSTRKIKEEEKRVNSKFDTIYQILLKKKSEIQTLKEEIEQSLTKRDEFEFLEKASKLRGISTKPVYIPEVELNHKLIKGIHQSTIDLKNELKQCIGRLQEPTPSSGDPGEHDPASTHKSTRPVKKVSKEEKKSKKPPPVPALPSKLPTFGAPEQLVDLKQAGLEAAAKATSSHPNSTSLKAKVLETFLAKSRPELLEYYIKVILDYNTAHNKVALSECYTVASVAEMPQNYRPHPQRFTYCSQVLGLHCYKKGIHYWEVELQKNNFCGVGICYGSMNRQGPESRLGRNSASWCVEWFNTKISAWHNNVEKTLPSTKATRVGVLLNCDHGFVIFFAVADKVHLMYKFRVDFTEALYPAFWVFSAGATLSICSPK
Sequence of UniProt Q00839 (Q00839 whole entry): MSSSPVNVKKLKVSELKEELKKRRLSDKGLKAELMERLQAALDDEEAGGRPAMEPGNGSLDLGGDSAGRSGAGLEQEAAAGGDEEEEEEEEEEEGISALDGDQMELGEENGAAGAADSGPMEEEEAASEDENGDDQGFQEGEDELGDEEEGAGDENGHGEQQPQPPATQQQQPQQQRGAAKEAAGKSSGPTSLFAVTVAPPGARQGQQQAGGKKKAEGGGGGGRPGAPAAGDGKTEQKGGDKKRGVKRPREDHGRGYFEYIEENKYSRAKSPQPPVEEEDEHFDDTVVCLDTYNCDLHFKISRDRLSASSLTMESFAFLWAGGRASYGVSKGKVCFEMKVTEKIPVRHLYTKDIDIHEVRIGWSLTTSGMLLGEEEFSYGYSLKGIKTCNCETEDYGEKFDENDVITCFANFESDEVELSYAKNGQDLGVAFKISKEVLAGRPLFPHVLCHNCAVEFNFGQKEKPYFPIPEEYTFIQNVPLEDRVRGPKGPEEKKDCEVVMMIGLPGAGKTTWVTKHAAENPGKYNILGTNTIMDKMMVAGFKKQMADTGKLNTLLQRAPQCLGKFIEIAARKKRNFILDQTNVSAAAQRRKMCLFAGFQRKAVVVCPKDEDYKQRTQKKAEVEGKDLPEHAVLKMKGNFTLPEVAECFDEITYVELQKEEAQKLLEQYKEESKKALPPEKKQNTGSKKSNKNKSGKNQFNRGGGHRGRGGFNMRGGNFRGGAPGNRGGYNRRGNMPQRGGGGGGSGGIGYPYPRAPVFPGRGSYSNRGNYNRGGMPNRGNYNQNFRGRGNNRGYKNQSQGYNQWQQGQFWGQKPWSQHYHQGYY
Sequence of UniProt Q9Y6G5 (Q9Y6G5 whole entry): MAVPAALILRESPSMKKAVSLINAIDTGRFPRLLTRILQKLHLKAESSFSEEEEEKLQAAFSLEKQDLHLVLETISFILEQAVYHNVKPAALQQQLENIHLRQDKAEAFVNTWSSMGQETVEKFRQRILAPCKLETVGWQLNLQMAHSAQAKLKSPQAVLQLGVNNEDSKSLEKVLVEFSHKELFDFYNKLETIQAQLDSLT
Sequence of UniProt Q14692 (Q14692 whole entry): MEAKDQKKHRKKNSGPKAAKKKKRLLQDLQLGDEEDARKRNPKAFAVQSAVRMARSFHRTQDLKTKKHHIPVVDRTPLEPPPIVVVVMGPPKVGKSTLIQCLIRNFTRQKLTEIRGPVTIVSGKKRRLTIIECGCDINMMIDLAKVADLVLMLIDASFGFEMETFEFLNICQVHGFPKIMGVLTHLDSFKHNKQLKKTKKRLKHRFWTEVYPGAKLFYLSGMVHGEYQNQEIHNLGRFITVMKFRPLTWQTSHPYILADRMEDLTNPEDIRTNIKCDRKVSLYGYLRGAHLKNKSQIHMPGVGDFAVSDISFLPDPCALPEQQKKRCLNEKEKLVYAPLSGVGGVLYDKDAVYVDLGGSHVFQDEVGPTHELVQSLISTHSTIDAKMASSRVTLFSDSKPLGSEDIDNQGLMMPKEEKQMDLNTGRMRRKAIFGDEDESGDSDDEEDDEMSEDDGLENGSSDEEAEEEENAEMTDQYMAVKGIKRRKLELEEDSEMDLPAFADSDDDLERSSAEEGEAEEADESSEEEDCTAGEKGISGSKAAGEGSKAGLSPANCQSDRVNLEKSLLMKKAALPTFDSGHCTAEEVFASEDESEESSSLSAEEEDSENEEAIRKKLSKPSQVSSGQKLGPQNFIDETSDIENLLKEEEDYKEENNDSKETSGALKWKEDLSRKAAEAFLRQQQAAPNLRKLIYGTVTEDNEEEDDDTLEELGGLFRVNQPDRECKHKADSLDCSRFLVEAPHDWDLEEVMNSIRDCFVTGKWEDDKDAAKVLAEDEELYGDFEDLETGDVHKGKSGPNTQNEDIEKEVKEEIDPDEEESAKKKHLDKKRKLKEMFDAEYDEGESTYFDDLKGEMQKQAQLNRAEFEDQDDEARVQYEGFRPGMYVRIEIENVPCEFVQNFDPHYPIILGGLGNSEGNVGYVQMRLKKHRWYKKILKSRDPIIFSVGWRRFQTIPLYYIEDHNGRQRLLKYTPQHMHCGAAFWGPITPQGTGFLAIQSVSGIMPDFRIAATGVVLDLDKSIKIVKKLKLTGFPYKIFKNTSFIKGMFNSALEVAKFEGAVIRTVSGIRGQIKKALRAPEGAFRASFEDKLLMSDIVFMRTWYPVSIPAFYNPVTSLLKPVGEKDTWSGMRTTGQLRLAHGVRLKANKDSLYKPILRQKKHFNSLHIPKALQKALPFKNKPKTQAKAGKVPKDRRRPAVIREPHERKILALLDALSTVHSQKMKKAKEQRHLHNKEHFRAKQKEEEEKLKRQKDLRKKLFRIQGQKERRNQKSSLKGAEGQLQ
Sequence of UniProt P07108 (P07108 whole entry): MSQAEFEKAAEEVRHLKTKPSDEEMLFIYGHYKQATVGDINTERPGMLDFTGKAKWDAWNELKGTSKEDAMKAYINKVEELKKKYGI

Target	thermal stability z-score (lipoamide; [1])	thermal stability z-score (lipoamide; arsenate co-treatment: none)	thermal stability z-score (potassium arsenate)
MYCBP2 (UniProt O75592)	-0.0354	0.179	-0.207
DDX1 (UniProt Q92499)	0.085	0.274	-0.304
IRF2BPL (UniProt Q9H1B7)	0.0789	0.157	-0.124
PDP1 (UniProt Q9P0J1)	0.0374	-0.191	-0.0616
ZBED1 (UniProt O96006)	-0.243	-0.292	0.00958
SYPL1 (UniProt Q16563)	0.951	-0.0774	0.425
RPS6 (UniProt P62753)	1.06	0.834	-0.404
GTF2H3 (UniProt Q13889)	0.0675	-0.229	-0.106
GOLGA2 (UniProt Q08379)	-0.426	-0.0551	0.679
STK3 (UniProt Q13188)	-0.139	-0.0255	0.098
CCNA2 (UniProt P20248)	1.41	0.18	1.25
ARHGEF7 (UniProt Q14155)	-0.856	-0.54	-0.0377
GPD2 (UniProt P43304)	0.223	0.223	-0.0843
MRPS34 (UniProt P82930)	-0.835	-0.044	0.427
BMS1 (UniProt Q14692)	0.575	0.482	0.723
LLPH (UniProt Q9BRT6)	-1.21	-1.15	-2.48
ZPR1 (UniProt O75312)	0.753	-0.187	-1.09
MINA (UniProt Q8IUF8)	0.0507	0.508	-1.34
C21ORF59 (UniProt P57076)	0.103	0.1	0.112
SUCLA2 (UniProt Q9P2R7)	0.0341	0.0719	-0.411
AP4M1 (UniProt O00189)	0.0799	-0.0232	-0.173
TRIM25 (UniProt Q14258)	-0.86	-0.867	-0.882

Target	thermal stability z-score (lipoamide; [1])	thermal stability z-score (lipoamide; arsenate co-treatment: none)	thermal stability z-score (potassium arsenate)
EIF4A3 (UniProt P38919)	-0.155	0.154	-0.492
COMMD10 (UniProt Q9Y6G5)	0.107	0.18	0.307
FRRS1 (UniProt Q6ZNA5)	-0.316	-0.157	0.586
ITPK1 (UniProt Q13572)	-0.0201	0.179	-0.31
TIMM13 (UniProt Q9Y5L4)	1.99	1.56	-0.381
DCAF13 (UniProt Q9NV06)	-0.43	-0.325	1.25
DBI (UniProt P07108)	1.09	0.274	-0.228
RSBN1L (UniProt Q6PCB5)	-0.0324	-0.225	0.113
TOR1A (UniProt O14656)	-3.18	-3.08	0.174
HDAC4 (UniProt P56524)	0.426	0.45	-0.19
HNRNPU (UniProt Q00839)	0.572	1.39	0.509
RDH13 (UniProt Q8NBN7)	-0.0891	-0.278	0.307
CEP83 (UniProt Q9Y592)	0.829	1.19	-0.498
RNF149 (UniProt Q8NC42)	-0.375	-0.859	-0.556
PTPRK (UniProt Q15262)	-1.17	-0.25	0.129
RPL18 (UniProt Q07020)	0.497	-0.313	-0.424
MORC3 (UniProt Q14149)	-0.165	-0.119	-0.054
TBC1D15 (UniProt Q8TC07)	-0.559	-0.646	-0.276
TNKS1BP1 (UniProt Q9C0C2)	-0.0132	0.146	3.12
CXXC1 (UniProt Q9P0U4)	-0.00204	0.187	0.00172
ATP2B2 (UniProt Q01814)	-0.146	-0.424	0.106
SCLY (UniProt Q96I15)	0.111	0.27	-0.415

Target	thermal stability z-score (lipoamide; [1])	thermal stability z-score (lipoamide; arsenate co-treatment: none)	thermal stability z-score (potassium arsenate)
QPCTL (UniProt Q9NXS2)	-0.434	-0.457	-0.256
IFRD2 (UniProt Q12894)	0.798	0.638	3.33
PLEKHA2 (UniProt Q9HB19)	-0.216	-0.168	-0.321
BABAM1 (UniProt Q9NWV8)	0.196	0.129	-0.323
MFSD5 (UniProt Q6N075)	0.0483	0.442	0.661
CASP2 (UniProt P42575)	-0.172	0.304	-1
SLC1A3 (UniProt P43003)	-0.157	0.124	0.352
RSL24D1 (UniProt Q9UHA3)	1.21	0.133	-3.91
MOV10 (UniProt Q9HCE1)	-0.0627	0.31	-0.16
SSBP4 (UniProt Q9BWG4)	1.24	1.21	-0.402
PTDSS2 (UniProt Q9BVG9)	0.2	-0.0317	-0.0291
MAP4K5 (UniProt Q9Y4K4)	-0.212	0.00139	0.00285
FHL1 (UniProt Q13642)	0.358	0.294	-0.17
HTT (UniProt P42858)	0.301	-0.0612	0.319
DRG2 (UniProt P55039)	-0.439	-0.192	-0.395
DNAJA3 (UniProt Q96EY1)	-1.12	-0.564	0.258
ECE2 (UniProt P0DPD6)	-0.0621	0.0487	-0.104
LMAN2 (UniProt Q12907)	-1.93	-1.77	0.284
PMS2 (UniProt P54278)	-0.198	-0.101	-0.0209
GTPBP3 (UniProt Q969Y2)	0.357	0.272	0.354
GABARAPL1 (UniProt Q9H0R8)	-1.22	-2.02	-0.849
